Test system: 454973-116-R2-J3-PDC spheroids, viability, % test/control
Experiment: Anticancer human tumor 454973-116-R2-J3-PDC patient-derived pancreatic carcinoma cell line growth inhibition [GQUAD]
Conditions: spheroids with HUVEC and MSC; for IC50: curve of first compound; for viability, T/C: stronger effect = lower value
Source text: DNA G-quadruplex Stabilizer Agents in Combinations in Complex Spheroids
A high-throughput screen of multi-cell type tumor spheroids was designed to identify active combinations of DNA G-quadruplex stabilizer agents and targeted small molecules. Complex spheroids include a stromal component modeled by human endothelial cells (HUVEC) and fibroblasts modeled by human mesenchymal stem cells (MSCs). The concentration ranges selected for each drug and investigational agent were based upon clinically achievable concentrations if the clinical Cmax of the agent was known.
Compounds. The drugs and investigational agents: pidnarulex (CX-5461; NSC782164), APTO-253 (NSC789042), BRACO-19 (NSC847499), peposertib (NSC802822), ceralasertib (NSC780249), elimusertib (NSC800525), camonsertib (NSC841442), AZD-1390 (NSC803789), olaparib (NSC753686), talazoparib (NSC767125), ART-558 (NSC835418), sotorasib (NSC818433), MRTX-1133 (NSC836407), SN-38 (NSC673596), topotecan (NSC609699), etoposide (NSC141540), doxorubicin (NSC123127), gemcitabine (NSC613327), 5-fluorouracil (NSC19893), paclitaxel (NSC125973), vemurafenib (NSC761431), panobinostat (NSC761190), R-306465 (JNJ-16241199; NSC773264), adavosertib (NSC754352), TP-3654 (NSC805149), carboplatin (NSC241240), KSQ-4279 (NSC840948), and staurosporine (NSC755774) were obtained from the National Cancer Institute (NCI) Developmental Therapeutics Program Chemical Repository (34). The FDA-approved anticancer drug set is available from the NCI Developmental Therapeutics Program. […] The stock solutions were prepared in dimethyl sulfoxide (DMSO, Sigma-Aldrich, St. Louis, MO, cat. D2650) at 800-fold the tested concentration and stored at -70 degrees C prior to their use. All drugs and investigational agents were tested over a range starting from a high concentration at or near the clinical Cmax and decreasing in half-log increments. If the clinical Cmax for an agent had not been determined, the highest concentration tested was 10 microM.
2.3 Cell Culture. All cells were maintained in an incubator at 37 degrees C and 5% CO2 with 95% humidity. The PDC lines were cultured according to standard operating procedures established by the NCI PDMR. All PDCs were thawed and cultured in Matrigel-coated flasks prepared with a working solution of 1X Ham's F-12 nutrient mix, without supplementation (Invitrogen, cat. 11765054), 100 U/mL penicillin-streptomycin (Invitrogen, cat. 15140122), and 2.5% Matrigel (Corning Inc., cat. 354248) for the first three passages. The 857933-349-R-J2-PDC line was cultured in 6C/Colon 1B media, which includes advanced DMEM/F-12 (Thermo Fisher Scientific, cat. 12634028), 10 mM HEPES (Thermo Fisher Scientific, cat. 15630080), 1X GlutaMAX supplement (Thermo Fisher Scientific, cat. 35050061), 0.1 mg/mL primocin (InvivoGen, cat. ant-pm-2), 10% defined fetal bovine serum, heat inactivated (HyClone Laboratories Inc., cat. SH30070.03HI), 50% L-WRN conditioned media (ATCC, cat. CRL-3276), 1.25 mM N-Acetyl-L-cysteine (Sigma-Aldrich, cat. A9165), 10 mM nicotinamide (Sigma-Aldrich, cat. N0636), 1X B-27 supplement (Thermo Fisher Scientific, cat. 17504044), 1X N-2 supplement (Thermo Fisher Scientific, cat. 17502048), 10 microM Y-27632 dihydrochloride (Tocris Bioscience, cat. 1254), and 50 ng/mL human EGF recombinant protein (Thermo Fisher Scientific, cat. PHG0311). The 485176-168-R4-J1-PDC line was cultured in Panc media, which includes all 6C/Colon 1B media components plus 100 ng/mL human FGF-10 (Thermo Fisher Scientific, cat. 100-26), 500 nM SB-431542 (Selleckchem, cat. S1067), and gastrin (Tocris, cat. 3006).
[…]

[1] = second compound 0.0316 µM, first compound 0.0316 µM
[2] = second compound 0.0316 µM, first compound 0.1 µM
[3] = second compound 0.0316 µM, first compound 0.316 µM
[4] = second compound 0.0316 µM, first compound 1 µM
[5] = second compound 0.0316 µM, first compound 3.16 µM
[6] = second compound 0.0316 µM, first compound 10 µM
[7] = second compound 0.1 µM, first compound 0.0316 µM
[8] = second compound 0.1 µM, first compound 0.1 µM
[9] = second compound 0.1 µM, first compound 0.316 µM
[10] = second compound 0.1 µM, first compound 1 µM
[11] = second compound 0.1 µM, first compound 3.16 µM
[12] = second compound 0.1 µM, first compound 10 µM
[13] = second compound 0.316 µM, first compound 0.0316 µM
[14] = second compound 0.316 µM, first compound 0.1 µM
[15] = second compound 0.316 µM, first compound 0.316 µM
[16] = second compound 0.316 µM, first compound 1 µM
[17] = second compound 0.316 µM, first compound 3.16 µM
[18] = second compound 0.316 µM, first compound 10 µM
[19] = second compound 1 µM, first compound 0.0316 µM
[20] = second compound 1 µM, first compound 0.1 µM
[21] = second compound 1 µM, first compound 0.316 µM
[22] = second compound 1 µM, first compound 1 µM
[23] = second compound 1 µM, first compound 3.16 µM
[24] = second compound 1 µM, first compound 10 µM
[25] = second compound 3.16 µM, first compound 0.0316 µM
[26] = second compound 3.16 µM, first compound 0.1 µM
[27] = second compound 3.16 µM, first compound 0.316 µM
[28] = second compound 3.16 µM, first compound 1 µM
[29] = second compound 3.16 µM, first compound 3.16 µM
[30] = second compound 3.16 µM, first compound 10 µM
[31] = second compound 10 µM, first compound 0.0316 µM
[32] = second compound 10 µM, first compound 0.1 µM
[33] = second compound 10 µM, first compound 0.316 µM
[34] = second compound 10 µM, first compound 1 µM
[35] = second compound 10 µM, first compound 3.16 µM
[36] = second compound 10 µM, first compound 10 µM
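Also: spheroids exposed to compounds for seven days.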

C=CCn1c(=O)c2cnc(Nc3ccc(N4CCN(C)CC4)cc3)nc2n1-c1cccc(C(C)(C)O)n1 + CN(C)c1ccc(Nc2c3ccc(NC(=O)CCN4CCCC4)cc3nc3cc(NC(=O)CCN4CCCC4)ccc23)cc1
IC50 (second compound 0.0316 µM): 0.433 µM | IC50 (second compound 0.1 µM): 0.35 µM | IC50 (second compound 0.316 µM): 0.399 µM | IC50 (second compound 1 µM): 0.365 µM | IC50 (second compound 3.16 µM): 0.423 µM | IC50 (second compound 10 µM): 0.431 µM | viability, T/C [1]: 109% | viability, T/C [2]: 89.4% | viability, T/C [3]: 65.3% | viability, T/C [4]: 16.2% | viability, T/C [5]: 7.05% | viability, T/C [6]: 8.82% | viability, T/C [7]: 108% | viability, T/C [8]: 98.7% | viability, T/C [9]: 51.8% | viability, T/C [10]: 19.7% | viability, T/C [11]: 6.15% | viability, T/C [12]: 9.87% | viability, T/C [13]: 99.4% | viability, T/C [14]: 90.7% | viability, T/C [15]: 59.2% | viability, T/C [16]: 15.8% | viability, T/C [17]: 6.5% | viability, T/C [18]: 9.33% | viability, T/C [19]: 82.9% | viability, T/C [20]: 89.5% | viability, T/C [21]: 55.6% | viability, T/C [22]: 11.3% | viability, T/C [23]: 7.68% | viability, T/C [24]: 9.81% | viability, T/C [25]: 85.2% | viability, T/C [26]: 83.2% | viability, T/C [27]: 61.9% | viability, T/C [28]: 14.7% | viability, T/C [29]: 8.4% | viability, T/C [30]: 12.1% | viability, T/C [31]: 71.4% | viability, T/C [32]: 78.3% | viability, T/C [33]: 57.8% | viability, T/C [34]: 25.7% | viability, T/C [35]: 11.2% | viability, T/C [36]: 10.8%

C=CC(=O)N1CCN(c2nc(=O)n(-c3c(C)ccnc3C(C)C)c3nc(-c4c(O)cccc4F)c(F)cc23)C(C)C1 (centres undefined) + Cc1[nH]c2ccc(F)cc2c1-c1nc2c3cccnc3c3ncccc3c2[nH]1
IC50 (second compound 0.0316 µM): > 10 µM | IC50 (second compound 0.1 µM): > 10 µM | IC50 (second compound 0.316 µM): > 10 µM | IC50 (second compound 1 µM): > 10 µM | IC50 (second compound 3.16 µM): > 10 µM | IC50 (second compound 10 µM): > 10 µM | viability, T/C [1]: 110% | viability, T/C [2]: 107% | viability, T/C [3]: 115% | viability, T/C [4]: 109% | viability, T/C [5]: 113% | viability, T/C [6]: 114% | viability, T/C [7]: 100% | viability, T/C [8]: 102% | viability, T/C [9]: 114% | viability, T/C [10]: 108% | viability, T/C [11]: 125% | viability, T/C [12]: 109% | viability, T/C [13]: 103% | viability, T/C [14]: 111% | viability, T/C [15]: 107% | viability, T/C [16]: 100% | viability, T/C [17]: 119% | viability, T/C [18]: 113% | viability, T/C [19]: 107% | viability, T/C [20]: 97% | viability, T/C [21]: 112% | viability, T/C [22]: 103% | viability, T/C [23]: 114% | viability, T/C [24]: 123% | viability, T/C [25]: 96.2% | viability, T/C [26]: 95.3% | viability, T/C [27]: 96.4% | viability, T/C [28]: 111% | viability, T/C [29]: 113% | viability, T/C [30]: 107% | viability, T/C [31]: 93.8% | viability, T/C [32]: 81.8% | viability, T/C [33]: 104% | viability, T/C [34]: 92.8% | viability, T/C [35]: 89.6% | viability, T/C [36]: 83.6%

— PubChem BioAssay AID2060508 (Molecular Pharmacology Branch, DTP, NCI, 2025)
